Patent US20210322352A1, “COMPOSITION FOR IMPROVING ENDURANCE AND METHOD OF IMPROVING ENDURANCE USING THE SAME” (PHARMA FOODS INTERNATIONAL CO., LTD., priority 2020, published 2021)

Columns and labels:
myosin 2a protein = experiment: Relative expression of myosin 2a in a skeletal muscle (soleus muscle), western blotting; format: in vivo, mouse
Description: (§1) Specifically, 10 week-old male ICR mice are classified into the group in which normal food is freely ingested and training is not carried out (control group), the group in which a diet of normal food added with 0.5% of GABA (1.8 g for human) is freely ingested and training is not carried out (GABA group), the group in which normal food is freely ingested and training is carried out (training group) and the group in which a diet of normal food added with 0.5% of GABA (1.8 g for human) is freely ingested and training is carried out (GABA training group) (9 mice in each group).
(§2) During the test period, the above classified mice freely ingested about 2.7 to about 5.0 g/day of normal food or GABA-comprising food per one individual. Regarding the training group and the GABA training group, running was forced for 60 minutes on a schedule of 3 times a week (interval of 1 day or 2 days). This training was continued until 3 days after termination of the below-mentioned third running test. […]
Two days after termination of the final training, a skeletal muscle (soleus muscle) tissue of mouse was grinded with a biomasher on ice. […] The protein concentration of the protein extraction liquid was measured with a protein assay BCA kit and dilution was carried out with a RIPA buffer so that the protein concentration of the protein extraction liquid would be 4 mg/ml. […]

phosphorylated AKT/AKT = experiment: Phosphorylated AKT/AKT ratio in a skeletal muscle (western blotting); format: in vivo, mouse; conditions: gastrocnemius muscle
Description: (§3) Specifically, 10 week-old male ICR mice are classified into the group in which normal food is freely ingested and training is not carried out (control group), the group in which a diet of normal food added with 0.5% of GABA (1.8 g for human) is freely ingested and training is not carried out (GABA group), the group in which normal food is freely ingested and training is carried out (training group) and the group in which a diet of normal food added with 0.5% of GABA (1.8 g for human) is freely ingested and training is carried out (GABA training group) (9 mice in each group). During the test period, the above classified mice freely ingested about 2.7 to about 5.0 g/day of normal food or GABA-comprising food per one individual. Regarding the training group and the GABA training group, running was forced for 60 minutes on a schedule of 3 times a week (interval of 1 day or 2 days). This training was continued until 3 days after termination of the below-mentioned third running test. In the training, a treadmill for small animals (Meiquest Ltd.) was used with the gradient of 0 degree to force running at 25 m/minute running speed. Since a mouse will run at the speed of about 6 to 24 m/minute without a load, the running speed of 25 m/minute is a little faster than normal, i.e., low to moderate intensity.

[1] = test system: glycogen in a skeletal muscle (gastrocnemius muscle); experiment: Measurement of the amount of glycogen in a skeletal muscle; format: in vivo, mouse; conditions: 0.5% GABA diet
Description: as §3

insulin in plasma = experiment: Measurement of the amount of insulin in plasma; format: in vivo, mouse; conditions: 0.5% GABA diet
Description: as §1
During the test period, the above classified mice freely ingested about 2.7 to about 5.0 g/day of normal food or GABA-comprising food per one individual. Regarding the training group and the GABA training group, running was forced for 60 minutes on a schedule of 3 times a week (interval of 1 day or 2 days). This training was continued until 3 days after termination of the below-mentioned third running test. In the training, a treadmill for small animals (Meiquest Ltd.) was used with the gradient of 0 degree to force running at 25 m/minute running speed. Since a mouse will run at the speed of about 6 to 24 m/minute without a load, the running speed of 25 m/minute is a little faster than normal, i.e., low to moderate intensity.
2 days after termination of the final training, blood of a mouse in a group is collected to measure the amount of insulin in plasma. The measurement of the amount of insulin in plasma was carried out as described below using Lbis (registered trademark) Insulin-Mouse T (FUJIFILM Wako Shibayagi Corporation).
96 well plate for turning an antibody into a solid phase was prepared and washed 4 times with a cleaning liquid. 100 μL of biotin binding anti-insulin antibody was added thereto and stirred. […] 100 μL of 1M sulphuric acid solution was respectively added to stop the reaction, measure absorbance (OD 450 nm) and calculate the amount of insulin in plasma.

mitochondrial DNA = experiment: Measurement of the amount of mitochondrial DNA in a skeletal muscle (real-time PCR); format: in vivo, mouse; conditions: GABA training group vs control group, GABA group and training group
Description: as §1
as §2, with “days).” for “days). This training was continued until 3 days after termination of the below-mentioned third running test.”
20 to 50 mg of tissue sample was taken out to a 2 mL plastic tube to extract DNA in accordance with the genome DNA purification protocol described in NucleoSpin® DNARapidLyse (TAKARA BIO INC.). The amount of relative expression of the amount of mitochondria with respect to mouse nuclear DNA was quantified with the real-time PCR method using Thermal Cycler Dice® Real TimeSystem II (TAKARA BIO INC.) and set as mitochondrial DNA amount.

AMPK protein = experiment: Relative expression of AMPK protein in a skeletal muscle (western blotting); format: in vivo, mouse; conditions: gastrocnemius muscle
Description: as §3, with “[…] The amount of protein was quantified in accordance with the method of the TaKaRa BCA Protein Assay Kit (TAKARA BIO INC.) using bovine serum albumin as” for “Since”, “standard protein. […]” for “mouse will run at the speed of about 6 to 24 m/minute without a load, the running speed of 25 m/minute is a little faster than normal, i.e., low to moderate intensity.”

skeletal muscle = conditions: GABA in addition to whey protein vs whey protein alone; in training; J Clin Med Res. 2019; 11(6):428-434; cited from earlier work
PGC-1α protein = experiment: Relative expression of PGC-1α protein in a skeletal muscle (western blotting); format: in vivo, mouse; conditions: gastrocnemius muscle
Description: as §3, with “[…] The amount of protein was quantified in accordance with the method of the TaKaRa BCA Protein Assay Kit (TAKARA BIO INC.) using bovine serum albumin as” for “Since”, “standard protein. […]” for “mouse will run at the speed of about 6 to 24 m/minute without a load, the running speed of 25 m/minute is a little faster than normal, i.e., low to moderate intensity.”

male ICR mice = experiment: Measurement of limit running time using a treadmill; format: in vivo, mouse; conditions: GABA training group vs training group, diet with 0.5% GABA
Description: as §3

Compound: NCCCC(=O)O [GABA, γ-aminobutyric acid]
- amount of expression of myosin 2a protein in a skeletal muscle (soleus muscle) (myosin 2a protein; GABA group vs control group and training group): tendency to increase
- amount of expression of myosin 2a protein in a skeletal muscle (soleus muscle) (myosin 2a protein; GABA training group vs the other 3 groups): significantly increased
- phosphorylated AKT/total AKT ratio in a skeletal muscle (phosphorylated AKT/AKT; GABA group vs control group): tendency to decrease
- phosphorylated AKT/total AKT ratio in a skeletal muscle (phosphorylated AKT/AKT; GABA training group vs training group, P=0.0001): significantly decreased
- amount of glycogen in the gastrocnemius muscle ([1]; GABA group vs control group, no training, P=0.09): tendency of increase
- amount of glycogen in the gastrocnemius muscle ([1]; GABA training group vs training group, P=0.04): significantly increased
- amount of insulin in plasma (insulin in plasma; GABA group vs control group, no training): decreased
- amount of insulin in plasma (insulin in plasma; GABA training group vs control group): decreased
- amount of insulin in plasma (insulin in plasma; GABA training group vs training group, P=0.07): decreased
- mitochondrial DNA amount in a skeletal muscle (mitochondrial DNA): tendency of increase
- amount of expression of AMPK protein (AMPK protein; GABA training group vs control group, P=0.0008): increased
- amount of expression of AMPK protein (AMPK protein; GABA training group vs training group): increased more than the training group
- amount of fat removed muscle (skeletal muscle): increases
- muscle hypertrophy (skeletal muscle): stimulates more muscle hypertrophy
- amount of expression of PGC-1α protein in a skeletal muscle (PGC-1α protein; GABA training group vs training group, P=0.01): significantly increased
- amount of expression of PGC-1α protein in a skeletal muscle (PGC-1α protein; vs control group (group not given, presumably GABA group)): tendency of increase
- amount of increase of running time due to a training (running time to exhaustion) (male ICR mice; fourth week, P=0.14): tendency to be enlarged
- amount of increase of running time due to a training (running time to exhaustion) (male ICR mice; second week, P=0.04): significantly enlarged
